Reference: patent US20080102082A1, “Formulation for Oral Administration Having a Health-Promoting Effect on the Cardiovascular System” (ROTTAPHARM S.p.A., priority 2004, published 2008)
Where two headings read alike, the source gives them in different places.

Key:
[1] = biological target: T1, HMG-CoA reductase (HMG-CoA-r) (Homo sapiens, UniProt P04035); conditions: competitive enzymatic inhibition; cited from earlier work
T1 sequence (P04035 1-888): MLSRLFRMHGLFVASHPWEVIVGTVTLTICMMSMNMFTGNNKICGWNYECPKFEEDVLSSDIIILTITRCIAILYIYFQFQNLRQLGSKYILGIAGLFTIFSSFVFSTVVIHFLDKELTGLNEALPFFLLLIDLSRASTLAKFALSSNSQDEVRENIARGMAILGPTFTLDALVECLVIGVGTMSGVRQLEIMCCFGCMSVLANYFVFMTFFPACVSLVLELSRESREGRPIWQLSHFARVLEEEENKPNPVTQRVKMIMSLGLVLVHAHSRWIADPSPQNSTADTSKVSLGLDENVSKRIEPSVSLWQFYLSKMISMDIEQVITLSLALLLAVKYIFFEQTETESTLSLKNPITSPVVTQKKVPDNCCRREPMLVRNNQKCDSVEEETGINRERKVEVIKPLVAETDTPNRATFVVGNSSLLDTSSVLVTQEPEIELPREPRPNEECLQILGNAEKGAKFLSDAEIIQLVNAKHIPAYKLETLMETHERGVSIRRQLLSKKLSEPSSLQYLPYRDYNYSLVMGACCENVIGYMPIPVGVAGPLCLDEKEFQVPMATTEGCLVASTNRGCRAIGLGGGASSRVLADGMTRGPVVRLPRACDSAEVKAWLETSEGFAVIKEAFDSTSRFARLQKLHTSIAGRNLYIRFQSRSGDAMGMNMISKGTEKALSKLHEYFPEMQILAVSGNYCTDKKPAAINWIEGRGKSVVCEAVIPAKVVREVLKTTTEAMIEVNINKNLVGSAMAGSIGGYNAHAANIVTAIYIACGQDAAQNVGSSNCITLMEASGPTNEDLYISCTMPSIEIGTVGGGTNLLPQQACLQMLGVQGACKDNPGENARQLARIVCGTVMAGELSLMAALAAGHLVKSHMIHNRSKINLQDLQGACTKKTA

[2] = in man; cited from earlier work
[3] = doses repeated daily in the animal; cited from earlier work
[4] = NOAEL, repeated daily doses in the animal; assay type: in vivo; conditions: extrapolated from the animal NOAEL
Method: In man the NOAEL is 6 mg.

Row | SMILES | activity for the enzyme relative to the natural substrate HMG-CoA [1] [times] | NOAEL (no observed adverse effect level) [2] [mg] | NOAEL (no observed adverse effect level) [3] [mg/kg] | NOAEL of the animal, corresponding amount in man [4]
1 | CC[C@H](C)C(=O)O[C@H]1C[C@@H](C)C=C2C=C[C@H](C)[C@H](CC[C@@H]3C[C@@H](O)CC(=O)O3)[C@H]21 [Monacolin K] | 2000 | – | – | –
2 | CC1=C(/C=C/C(C)=C/C=C/C(C)=C/C=C/C=C(C)/C=C/C=C(C)/C=C/C2=C(C)C(=O)[C@@H](O)CC2(C)C)C(C)(C)C[C@H](O)C1=O [AX, 3,3′-dihydroxy-β,β′-carotene-4,4′-dione] | – | 6 | 1340 | more than 80 g
